Laboratory results from the NIST ThermoML archive (doi:10.1021/je900596d).

Details: for mass density: Vibrating tube method

FC(F)=C(F)C(F)(F)F [hexafluoropropene]
Details	mass density [kg/m3]	vapor or sublimation pressure [kPa]
343.18 K, 7163.7 kPa, Liquid	1166.5	–
343.18 K, 7207.1 kPa, Liquid	1167.25	–
343.18 K, 7249.5 kPa, Liquid	1168.08	–
343.18 K, 7293.3 kPa, Liquid	1168.78	–
343.18 K, 7354.7 kPa, Liquid	1169.81	–
343.18 K, 7477.5 kPa, Liquid	1171.63	–
343.18 K, 7539.3 kPa, Liquid	1172.69	–
343.18 K, 7580 kPa, Liquid	1173.37	–
343.18 K, 7621.6 kPa, Liquid	1174.18	–
343.18 K, 7663.4 kPa, Liquid	1174.54	–
343.18 K, 7709.7 kPa, Liquid	1175.39	–
343.18 K, 7753.6 kPa, Liquid	1176.17	–
343.18 K, 7797.5 kPa, Liquid	1176.76	–
343.18 K, 7837.6 kPa, Liquid	1177.31	–
343.18 K, 7898.4 kPa, Liquid	1178.24	–
343.18 K, 7941.1 kPa, Liquid	1178.97	–
343.18 K, 7984.5 kPa, Liquid	1179.58	–
343.18 K, 8043.1 kPa, Liquid	1180.22	–
343.18 K, 8085.6 kPa, Liquid	1180.85	–
343.18 K, 8131.1 kPa, Liquid	1181.65	–
343.18 K, 8209.9 kPa, Liquid	1183.02	–
343.18 K, 8291.5 kPa, Liquid	1184.04	–
343.18 K, 8335.5 kPa, Liquid	1184.74	–
343.18 K, 8378 kPa, Liquid	1185.42	–
343.18 K, 8419.6 kPa, Liquid	1185.91	–
343.18 K, 8464.8 kPa, Liquid	1186.51	–
343.18 K, 8525.6 kPa, Liquid	1187.33	–
343.18 K, 8587 kPa, Liquid	1188.25	–
343.18 K, 8628.5 kPa, Liquid	1188.86	–
343.18 K, 8670.7 kPa, Liquid	1189.47	–
343.18 K, 8714.6 kPa, Liquid	1189.91	–
343.18 K, 8776.2 kPa, Liquid	1190.93	–
343.18 K, 8818.3 kPa, Liquid	1191.58	–
343.18 K, 8881.2 kPa, Liquid	1192.4	–
343.18 K, 8941.7 kPa, Liquid	1193.53	–
343.18 K, 9000.5 kPa, Liquid	1194.02	–
343.18 K, 9064 kPa, Liquid	1194.66	–
343.18 K, 9123.4 kPa, Liquid	1195.43	–
343.18 K, 9184.1 kPa, Liquid	1196.23	–
343.18 K, 9262 kPa, Liquid	1197.29	–
343.18 K, 9304.6 kPa, Liquid	1197.74	–
343.18 K, 9350.1 kPa, Liquid	1198.56	–
343.18 K, 9408.2 kPa, Liquid	1199.15	–
343.18 K, 9449.8 kPa, Liquid	1199.74	–
343.18 K, 9509.5 kPa, Liquid	1200.56	–
343.18 K, 9567.5 kPa, Liquid	1201.28	–
343.18 K, 9607.9 kPa, Liquid	1202.1	–
343.18 K, 9667.5 kPa, Liquid	1202.79	–
343.18 K, 9708 kPa, Liquid	1203.31	–
343.18 K, 9749.9 kPa, Liquid	1203.76	–
343.18 K, 9796.9 kPa, Liquid	1204.53	–
343.18 K, 9839 kPa, Liquid	1205.06	–
343.18 K, 9920.9 kPa, Liquid	1205.9	–
343.18 K, 9962.6 kPa, Liquid	1206.45	–
343.21 K, Liquid, Closed cell (Static) method	–	2243.8
343.26 K, 3.2 kPa, Fluid (supercritical or subcritical phases)	0.22	–
343.26 K, 5.9 kPa, Fluid (supercritical or subcritical phases)	0.35	–
343.26 K, 8.6 kPa, Fluid (supercritical or subcritical phases)	0.55	–
343.26 K, 10.3 kPa, Fluid (supercritical or subcritical phases)	0.63	–
343.26 K, 12.1 kPa, Fluid (supercritical or subcritical phases)	0.73	–
343.26 K, 14.8 kPa, Fluid (supercritical or subcritical phases)	0.81	–
343.26 K, 16.4 kPa, Fluid (supercritical or subcritical phases)	1	–
343.26 K, 19.5 kPa, Fluid (supercritical or subcritical phases)	1.07	–
343.26 K, 22.4 kPa, Fluid (supercritical or subcritical phases)	1.29	–
343.26 K, 24.3 kPa, Fluid (supercritical or subcritical phases)	1.34	–
343.26 K, 25.9 kPa, Fluid (supercritical or subcritical phases)	1.39	–
343.26 K, 29 kPa, Fluid (supercritical or subcritical phases)	1.68	–
343.26 K, 32 kPa, Fluid (supercritical or subcritical phases)	1.75	–
343.26 K, 33.6 kPa, Fluid (supercritical or subcritical phases)	1.83	–
343.26 K, 36.6 kPa, Fluid (supercritical or subcritical phases)	1.97	–
343.26 K, 38.2 kPa, Fluid (supercritical or subcritical phases)	2.07	–
343.26 K, 39.9 kPa, Fluid (supercritical or subcritical phases)	2.11	–
343.26 K, 43.2 kPa, Fluid (supercritical or subcritical phases)	2.31	–
343.26 K, 45.9 kPa, Fluid (supercritical or subcritical phases)	2.54	–
343.26 K, 50.6 kPa, Fluid (supercritical or subcritical phases)	2.72	–
343.26 K, 55.4 kPa, Fluid (supercritical or subcritical phases)	3	–
343.26 K, 59.9 kPa, Fluid (supercritical or subcritical phases)	3.25	–
343.26 K, 63.1 kPa, Fluid (supercritical or subcritical phases)	3.46	–
343.26 K, 66.1 kPa, Fluid (supercritical or subcritical phases)	3.7	–
343.26 K, 70.8 kPa, Fluid (supercritical or subcritical phases)	3.87	–
343.26 K, 72.4 kPa, Fluid (supercritical or subcritical phases)	3.95	–
343.26 K, 74.2 kPa, Fluid (supercritical or subcritical phases)	4.04	–
343.26 K, 77.2 kPa, Fluid (supercritical or subcritical phases)	4.21	–
343.26 K, 80.1 kPa, Fluid (supercritical or subcritical phases)	4.42	–
343.26 K, 81.8 kPa, Fluid (supercritical or subcritical phases)	4.49	–
343.26 K, 83.4 kPa, Fluid (supercritical or subcritical phases)	4.54	–
343.26 K, 86.6 kPa, Fluid (supercritical or subcritical phases)	4.74	–
343.26 K, 89.9 kPa, Fluid (supercritical or subcritical phases)	4.91	–
343.26 K, 94.8 kPa, Fluid (supercritical or subcritical phases)	5.2	–
343.26 K, 97.7 kPa, Fluid (supercritical or subcritical phases)	5.42	–
343.26 K, 104 kPa, Fluid (supercritical or subcritical phases)	5.73	–
343.26 K, 110.1 kPa, Fluid (supercritical or subcritical phases)	6.1	–
343.26 K, 116.3 kPa, Fluid (supercritical or subcritical phases)	6.4	–
343.26 K, 122.7 kPa, Fluid (supercritical or subcritical phases)	6.8	–
343.26 K, 129.3 kPa, Fluid (supercritical or subcritical phases)	7.14	–
343.26 K, 135.5 kPa, Fluid (supercritical or subcritical phases)	7.51	–
343.26 K, 141.7 kPa, Fluid (supercritical or subcritical phases)	7.92	–
343.26 K, 148.2 kPa, Fluid (supercritical or subcritical phases)	8.27	–
343.26 K, 154.4 kPa, Fluid (supercritical or subcritical phases)	8.6	–
343.26 K, 160.9 kPa, Fluid (supercritical or subcritical phases)	8.89	–
343.26 K, 170.1 kPa, Fluid (supercritical or subcritical phases)	9.39	–
343.26 K, 176.8 kPa, Fluid (supercritical or subcritical phases)	9.8	–
343.26 K, 183.2 kPa, Fluid (supercritical or subcritical phases)	10.15	–
343.26 K, 189.6 kPa, Fluid (supercritical or subcritical phases)	10.49	–
343.26 K, 200.5 kPa, Fluid (supercritical or subcritical phases)	11.16	–
343.26 K, 213.3 kPa, Fluid (supercritical or subcritical phases)	11.94	–
343.26 K, 225.8 kPa, Fluid (supercritical or subcritical phases)	12.7	–
343.26 K, 237.9 kPa, Fluid (supercritical or subcritical phases)	13.34	–
343.26 K, 250.5 kPa, Fluid (supercritical or subcritical phases)	14.05	–
343.26 K, 262.7 kPa, Fluid (supercritical or subcritical phases)	14.74	–
343.26 K, 274 kPa, Fluid (supercritical or subcritical phases)	15.32	–
343.26 K, 286 kPa, Fluid (supercritical or subcritical phases)	16.09	–
343.26 K, 298.3 kPa, Fluid (supercritical or subcritical phases)	16.8	–
343.26 K, 311.2 kPa, Fluid (supercritical or subcritical phases)	17.55	–
343.26 K, 323.1 kPa, Fluid (supercritical or subcritical phases)	18.22	–
343.26 K, 335.5 kPa, Fluid (supercritical or subcritical phases)	18.98	–
343.26 K, 347.7 kPa, Fluid (supercritical or subcritical phases)	19.66	–
343.26 K, 360 kPa, Fluid (supercritical or subcritical phases)	20.46	–
343.26 K, 372.1 kPa, Fluid (supercritical or subcritical phases)	21.09	–
343.26 K, 384.1 kPa, Fluid (supercritical or subcritical phases)	21.84	–
343.26 K, 396.5 kPa, Fluid (supercritical or subcritical phases)	22.56	–
343.26 K, 408.2 kPa, Fluid (supercritical or subcritical phases)	23.28	–
343.26 K, 420.5 kPa, Fluid (supercritical or subcritical phases)	24.04	–
343.26 K, 431.3 kPa, Fluid (supercritical or subcritical phases)	24.66	–
343.26 K, 443.3 kPa, Fluid (supercritical or subcritical phases)	25.35	–
343.26 K, 455.1 kPa, Fluid (supercritical or subcritical phases)	26	–
343.26 K, 466.9 kPa, Fluid (supercritical or subcritical phases)	26.77	–
343.26 K, 478.8 kPa, Fluid (supercritical or subcritical phases)	27.49	–
343.26 K, 490.9 kPa, Fluid (supercritical or subcritical phases)	28.19	–
343.26 K, 507.3 kPa, Fluid (supercritical or subcritical phases)	29.18	–
343.26 K, 521.6 kPa, Fluid (supercritical or subcritical phases)	30.11	–
343.26 K, 535.5 kPa, Fluid (supercritical or subcritical phases)	30.9	–
343.26 K, 548.6 kPa, Fluid (supercritical or subcritical phases)	31.65	–
343.26 K, 561.3 kPa, Fluid (supercritical or subcritical phases)	32.53	–
